# Source: patent publication US20240252514A1, “NEUROACTIVE STEROID FOR THE TREATMENT OF MILD COGNITIVE IMPAIRMENT ASSOCIATED WITH PARKINSON'S DISEASE” (SAGE THERAPEUTICS, INC., priority 2021, published 2024)
# “Also recorded” adds a separate entry of the source.
# Key:
# Assay type in all cases: in vivo, human
# [1] = test system: patients suffering from Mild Cognitive Impairment due to Parkinson's Disease (PD-MCI); test: Tests of Executive Functioning (MTT, OTS, SWM, DSST, 2-Back), open label study
# Method: (§1) The safety and tolerability of Compound 1 and its effects on cognitive, neuropsychiatric, and motor symptoms in patients suffering from Mild Cognitive Impairment due to Parkinson's Disease (PD-MCI) was evaluated in an open label study. Eligible participants with a confirmed diagnosis of idiopathic PD by 2015 Movement Disorder Society (MDS) criteria (Berardelli et al., EFNS/MDS-ES/ENS recommendations for the diagnosis of Parkinson's disease. Eur J Neurol. 2013; 20:16-34) at Screening and who met MDS Task Force Criteria for MCI in PD (excluding requirement for UK PD Brain Bank diagnostic criteria) received 3.0 mg of Compound 1 (oral dose) daily for 14 days. Participants were instructed to take the daily dose of Compound 1 in the morning within 1 hour of initiating a meal containing approximately 30 g of fat. The study protocol was as follows and is depicted in FIG. 1.
# (§2) Beginning on Day 1 and continuing through Day 14, participants self-administered 3.0 mg Compound 1 (as six 0.5-mg oral tablets), once per day in the morning within 1 hour after initiating a meal containing approximately 30 g of fat, in accordance with the guidelines provided in a nutritional information brochure. Participants continued to complete daily assessments of cognitive performance and sleep via mobile device either remotely (at home), or in the clinic at scheduled visits and tracked Compound 1 dosing and predose food intake in a participant diary.
# (§3) Eight patients (male and female) aged 50 to 75 years old with mild cognitive impairment due to Parkinson's disease received 3 mg as oral tablets of Compound 1 daily for 2-weeks.
# The tests of Executive Functioning included (1) Multitasking Test (MTT), which assesses how well the subject manages conflicting information; (2) One Touch Stockings of Cambridge (OTS), which assesses how well the subject plans, holds onto, and manipulates information to solve a puzzle; (3) Spatial Working Memory (SWM), which assesses how well the subject develops and uses a strategy to find hidden information; (4) Digit Symbol Substitution Task (DSST), which assesses how efficiently can the subject complete a demanding task (daily measure); and (5) Two-Back Test (NBX), which asks is the symbol the same as that shown two symbols ago.
# [2] = test system: patients suffering from Mild Cognitive Impairment due to Parkinson's Disease (PD-MCI); test: Tests of Attention and Psychomotor Performance (RTI, PVT), open label study
# Method: as §1, §2, §3
# The tests of Attention and Psychomotor Performance included Reaction Time (RTI), which assesses how fast the subject can respond to a stimulus (weekly measure); Psychomotor Vigilance Task (PVT), which assesses how fast can the subject respond to a stimulus (daily measure).
# [3] = test system: patients suffering from Mild Cognitive Impairment due to Parkinson's Disease (PD-MCI); test: Safety and tolerability (adverse events), open label study; details: 3 mg oral daily for 14 days, follow-up to Day 28
# Method: as §1
# At scheduled visits during the Treatment Period, participants completed the mobile device tasks under staff supervision. At scheduled clinic visits during the Treatment Period, safety, efficacy, and PK procedures were performed. In addition to weekly clinic visits, study staff contacted participants by telephone on Day 4 to document any TEAEs and/or changes in concomitant medications.
# Participants were contacted by telephone on Day 21 to document any AEs and/or changes in concomitant medications. Participants returned to the clinic on Day 28 (±2 days) for a follow-up visit.
# The Primary objective of the study was to assess (1) the percentage of Participants With at Least One Treatment-Emergent Adverse Event (TEAE) (Time Frame: Up to Day 28).
# [4] = test system: patients suffering from Mild Cognitive Impairment due to Parkinson's Disease (PD-MCI); test: Tests of Learning and Memory (PAL, PRM, Verbal Recognition Memory, Spatial Span), open label study
# Method: as §1, §2, §3
# The tests of Learning and Memory included Paired Associates Learning (PAL), which assesses how well the subject remembers the location of hidden objects; Pattern Recognition Memory (PRM), which assesses how well the subject remembers a pattern; and Verbal Recognition Memory […], which assesses how well the subject stores and retrieves verbal information.
# [5] = test system: patients suffering from Mild Cognitive Impairment due to Parkinson's Disease (PD-MCI); test: Tests of Social Cognition (ERT, EBT), open label study; details: 3 mg oral daily for 14 days, vs baseline, Clinic/Weekly
# Method: as §1
# Beginning on Day 1 and continuing through Day 14, participants self-administered 3.0 mg Compound 1 (as six 0.5-mg oral tablets), once per day in the morning within 1 hour after initiating a meal containing approximately 30 g of fat, in accordance with the guidelines provided in a nutritional information brochure. […]
# [6] = PD-MCI patients, 3 mg oral daily for 14 days, vs baseline, Clinic/Weekly
# [7] = 3 mg oral daily for 14 days, vs baseline, Clinic/Weekly
compound,measurement,setting,value
C[C@H](CC[C@](C)(O)C(F)(F)F)[C@H]1CC[C@H]2[C@@H]3CC=C4C[C@@](C)(O)CC[C@]4(C)[C@H]3CC[C@]12C [Compound 1],"Trend, Executive Functioning: 2-Back",[1]; [6],Improvement
same,"Trend, Executive Functioning: Multitasking",[1]; [6],Improvement
same,"Trend, Executive Functioning: One Touch Stockings",[1]; [6],Improvement
same,"Trend, Executive Functioning: Spatial working Memory",[1]; [6],Improvement
same,"Trend, Executive Functioning: DSST","[1]; PD-MCI patients, 3 mg oral daily for 14 days, vs baseline, Mobile/Daily",Improvement
same,"Performance in the cognitive domain of executive function (five tests, overall)","[1]; PD-MCI patients, 3 mg oral daily, during 14 days of treatment, vs baseline (FIGS. 2-3)",performance improvements from baseline; also recorded: improved performance
same,DSST improvement over baseline,"[1]; PD-MCI subjects, 3 mg oral daily, Treatment Day 14 (FIG. 3)",~27%
same,"Trend, Attention & Psychomotor Speed: Reaction Time",[2]; [7],Neutral
same,"Trend, Attention & Psychomotor Speed: Psychomotor Vigilance","[2]; 3 mg oral daily for 14 days, vs baseline, Mobile/Daily",Neutral
same,Performance in tests of attention and psychomotor speed (overall),"[2]; 3 mg oral daily, 14 days (FIG. 6)",neutral results; also recorded: no appreciable change
same,Serious adverse events,[3],no serious adverse events
same,Tolerability,[3],generally well tolerated
same,Treatment emergent adverse events related to the compound,[3],no treatment emergent adverse events were determined to be related to Compound 1
same,"Trend, Learning and Memory: Paired Associates",[4]; [7],Improvement
same,"Trend, Learning and Memory: Pattern recognition",[4]; [7],Improvement
same,"Trend, Learning and Memory: Spatial Span",[4]; [7],Neutral
same,"Trend, Learning and Memory: Verbal Memory",[4]; [7],Improvement
same,Performance in the domains of learning and memory (overall),"[4]; 3 mg oral daily, 14 days, vs baseline (FIGS. 4 and 5)",improved performance from baseline
same,"Trend, Social Cognition: Emotional Bias",[5],Improvement
same,"Trend, Social Cognition: Emotional Recognition",[5],Neutral
